Experimental data published in ChEMBL document CHEMBL2331446, “Discovery of a potential anti-inflammatory agent: 3-oxo-29-noroleana-1,9(11),12-trien-2,20-dicarbonitrile” (J Med Chem, 2013).
The source made the active and inactive calls. No cut-off for these calls is given here.

Tests used:
RAW264.7 [1] = assay: Antiinflammatory activity in mouse RAW264.7 cells assessed as inhibition of NO production after 24 hrs in presence of mifepristone; assay type: functional, cell-based
[2] = target: T1, NF-kappa-B inhibitor alpha (Mus musculus) (UniProt Q9Z1E3); assay: Inhibition of IkappaB phosphorylation in mouse LPS-induced RAW264.7 cells at 0.1 to 0.4 uM incubated for 2 hrs prior to LPS-challenge measured after 30 mins by Western blot analysis; assay type: cell-based
T1 sequence (whole entry): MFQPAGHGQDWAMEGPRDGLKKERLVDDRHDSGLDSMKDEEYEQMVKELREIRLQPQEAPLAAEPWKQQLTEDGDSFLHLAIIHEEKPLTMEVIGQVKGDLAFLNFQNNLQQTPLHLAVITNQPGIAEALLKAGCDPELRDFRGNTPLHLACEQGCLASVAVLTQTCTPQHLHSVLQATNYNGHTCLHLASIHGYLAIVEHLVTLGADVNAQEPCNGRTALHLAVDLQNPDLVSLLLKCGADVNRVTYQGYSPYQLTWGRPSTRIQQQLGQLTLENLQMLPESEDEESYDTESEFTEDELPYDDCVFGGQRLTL

RAW264.7 [3] = assay: Inhibition of ERK phosphorylation in mouse LPS-induced RAW264.7 cells at 0.1 to 0.4 uM incubated for 2 hrs prior to LPS-challenge measured after 30 mins by Western blot analysis; assay type: cell-based
RAW264.7 [4] = assay: Antiinflammatory activity in mouse RAW264.7 cells assessed as inhibition of LPS-induced NO production at 50 uM incubated for 2 hrs prior to LPS-challenge measured after 24 hrs by Griess method; assay type: functional
[5] = target: T1, NF-kappa-B inhibitor alpha (Mus musculus); assay: Inhibition of IkappaBalpha degradation in mouse LPS-induced RAW264.7 cells assessed as increase in cytosolic IkappaB level at 0.1 to 0.4 uM incubated for 2 hrs prior to LPS-challenge measured after 30 mins by Western blot analysis; assay type: cell-based
[6] = target: MAP kinase p38 (Mus musculus) (UniProt P47811+O08911+Q9WUI1+Q9Z1B7); assay: Inhibition of MAPK p38 in mouse LPS-induced RAW264.7 cells at 0.1 to 0.4 uM incubated for 2 hrs prior to LPS-challenge measured after 30 mins by Western blot analysis; assay type: cell-based
RAW264.7 [7] = assay: Effect on JNK level in mouse LPS-induced RAW264.7 cells at 0.1 to 0.4 uM incubated for 2 hrs prior to LPS-challenge measured after 30 mins by Western blot analysis; assay type: functional, cell-based
RAW264.7 [8] = assay: Antiinflammatory activity in mouse RAW264.7 cells assessed as inhibition of LPS-induced iNOS mRNA expression at 0.1 to 0.4 uM incubated for 2 hrs prior to LPS-challenge measured after 8 hrs by qPCR analysis; assay type: functional, cell-based
Mus musculus [9] = assay: Antiinflammatory activity in ICR mouse assessed as protection against LPS-induced sepsis at 12.5 to 200 mg/kg, ip administered for 5 days prior to LPS-challenge measured after 2 hrs post last dose; assay type: functional, organism-based
RAW264.7 [10] = assay: Antiinflammatory activity in mouse RAW264.7 cells assessed as inhibition of LPS-induced NO production incubated for 2 hrs prior to LPS-challenge measured after 24 hrs by Griess method; assay type: functional, cell-based
RAW264.7 [11] = assay: Effect on ERK level in mouse LPS-induced RAW264.7 cells at 0.1 to 0.4 uM incubated for 2 hrs prior to LPS-challenge measured after 30 mins by Western blot analysis; assay type: functional, cell-based
RAW264.7 [12] = assay: Effect on MAPK p38 level in mouse LPS-induced RAW264.7 cells at 0.1 to 0.4 uM incubated for 2 hrs prior to LPS-challenge measured after 30 mins by Western blot analysis; assay type: functional, cell-based
Mus musculus [13] = assay: Antiinflammatory activity in ICR mouse assessed as protection against LPS-induced sepsis at 50 mg/kg, ip administered for 5 days prior to LPS-challenge measured after 2 hrs; assay type: functional, organism-based; design: dose 50 mg/kg
[14] = target: T1, NF-kappa-B inhibitor alpha (Mus musculus); assay: Inhibition of IkappaBalpha in mouse RAW264.7 cells assessed as inhibition of LPS-stimulated NF-kappaB p65 subunit translocation to nucleus at 0.1 to 0.4 uM incubated for 2 hrs prior to LPS-challenge measured after 30 mins by Western blot analysis; assay type: cell-based
RAW264.7 [15] = assay: Antiinflammatory activity in mouse RAW264.7 cells assessed as inhibition of LPS-stimulated IL-6 mRNA expression at 0.1 to 0.4 uM incubated for 2 hrs prior to LPS-challenge measured after 8 hrs by quantitative real time PCR analysis; assay type: functional, cell-based
RAW264.7 [16] = assay: Antiinflammatory activity in mouse RAW264.7 cells assessed as inhibition of LPS-stimulated IL-1beta mRNA expression at 0.1 to 0.4 uM incubated for 2 hrs prior to LPS-challenge measured after 8 hrs by quantitative real time PCR analysis; assay type: functional, cell-based
RAW264.7 [17] = assay: Antiinflammatory activity in mouse RAW264.7 cells assessed as inhibition of LPS-stimulated IL-6 mRNA expression incubated for 2 hrs prior to LPS-challenge measured after 8 hrs by quantitative real time PCR analysis relative to control; assay type: functional, cell-based
RAW264.7 [18] = assay: Antiinflammatory activity in mouse RAW264.7 cells assessed as inhibition of LPS-induced iNOS protein expression incubated for 2 hrs prior to LPS-challenge measured after 24 hrs by Western blot analysis; assay type: functional, cell-based
RAW264.7 [19] = assay: Inhibition of JNK phosphorylation in mouse LPS-induced RAW264.7 cells at 0.1 to 0.4 uM incubated for 2 hrs prior to LPS-challenge measured after 30 mins by Western blot analysis; assay type: cell-based
RAW264.7 [20] = assay: Cytotoxicity against mouse LPS-challenged RAW264.7 cells at 80 uM after 24 hrs by MTT assay; assay type: cell-based; details: raw264.7, 24 h
Mus musculus [21] = assay: Antiinflammatory activity in ICR mouse assessed as reversal in LPS-induced weight loss at 12.5 to 200 mg/kg, ip administered for 5 days prior to LPS-challenge measured from day 9 to 11 relative to control; assay type: functional, organism-based
RAW264.7 [22] = assay: Cytotoxicity against mouse RAW264.7 cells at 80 uM after 24 hrs by MTT assay; assay type: cell-based; details: raw264.7, 24 h
RAW264.7 [23] = assay: Antiinflammatory activity in mouse RAW264.7 cells assessed as inhibition of LPS-stimulated TNF-alpha mRNA expression at 0.2 to 0.4 uM incubated for 2 hrs prior to LPS-challenge measured after 8 hrs by quantitative real time PCR analysis; assay type: functional, cell-based
Mus musculus [24] = assay: Antiinflammatory activity in ICR mouse assessed as reversal in LPS-induced weight loss at 12.5 to 200 mg/kg, ip administered for 5 days prior to LPS-challenge measured up to day 8 relative to control; assay type: functional, organism-based
RAW264.7 [25] = assay: Ratio of glycyrrhetinic acid to compound activity in mouse RAW264.7 cells; assay type: functional

inhibition [2]: Active
inhibition [5]: Active
inhibition [6]: Active
IC50 (RAW264.7 [10]): 200 nM
inhibition [14]: Active
Structure (SMILES): CC1(C)C(=O)C(C#N)=C[C@]2(C)C3=CC=C4[C@@H]5C[C@@](C)(C#N)CC[C@]5(C)CC[C@@]4(C)[C@]3(C)CC[C@@H]12
inhibition (RAW264.7 [1]): Active
inhibition (RAW264.7 [3]): Active
inhibition at 50 µM (RAW264.7 [4]): 99.1%
Activity (RAW264.7 [7]): inactive
inhibition (RAW264.7 [8]): Active
Activity (Mus musculus [9]): inactive
Activity (RAW264.7 [11]): inactive
Activity (RAW264.7 [12]): inactive
Activity (Mus musculus [13]): Active
inhibition (RAW264.7 [15]): Dose-dependent effect
inhibition (RAW264.7 [16]): Dose-dependent effect
inhibition (RAW264.7 [17]): inactive
inhibition (RAW264.7 [18]): Dose-dependent effect
inhibition (RAW264.7 [19]): Active
Activity (RAW264.7 [20]): Non-toxic
Activity (Mus musculus [21]): Active
Activity (RAW264.7 [22]): Non-toxic
inhibition (RAW264.7 [23]): Active
Activity (Mus musculus [24]): inactive
Ratio (RAW264.7 [25]): 1000
